Source: paper PMC6100240, “Discovery of 2-(4-Substituted-piperidin/piperazine-1-yl)-N-(5-cyclopropyl-1H-pyrazol-3-yl)-quinazoline-2,4-diamines as PAK4 Inhibitors with Potent A549 Cell Proliferation, Migration, and Invasion Inhibition Activity” (Molecules : A Journal of Synthetic Chemistry and Natural …, 2018)

Assays:
[1] = system: HT1080; test: MTT cell proliferation assay, HT1080; format: cell-based, human; details: for IC50: Homo sapiens, HT-1080, 50% cell growth inhibition after 24 h of drug exposure, MTT assay; for Activity against HT1080 (off-target check): growth not dependent on PAK4
Procedure: (§1) Meanwhile, the tumor cell line HT1080, whose growth is not dependent on PAK4, was used to test the potential off-target effects of the potent PAK4 inhibitors.
(§2) The human pulmonary carcinoma cell line A549 and the human fibrosarcoma cell line HT1080 were cultured in RPMI-1640 medium containing 10% fetal bovine serum (FBS), at 37 °C in a humidified atmosphere containing 5% CO2.
(§3) The in vitro antiproliferative activity of some of the target compounds was determined by the MTT assay (Amresco, Seattle, WA, USA). A suspension of 100 µL human cancer cells (5 × 10^4/mL) was plated in a 96-well cell culture plate and incubated with 5% CO2 at 37 °C for 24 h. Then cells were exposed to various concentrations of compounds and further cultured for 24 h. After that, MTT was added and absorbance was measured at 490 nm using a EL × 800 microplate reader (BioTek, Winooski, VT, USA). Dose-response curves were plotted to determine the IC50 values using GraphPad Prism 5.0. Each IC50 value was expressed as mean ± standard deviation.

[2] = system: A549 cells; test: Transwell cell migration assay; format: cell-based, human; details: 24 h
Procedure: (§4) We next examined the effects of compound 8d on the cycle progression of A549. Cells were treated with compound 8d at varying concentrations (1.0, 3.0, 9.0 μM) and vehicle (dimethyl sulfoxide−DMSO) for 24 h, and subjected to flow cytometry analysis to determine the distribution of cells in various phases of the cell cycle. […] PAK4 activity is involved in cytoskeleton dynamics and cancer cell migration and invasion; therefore, the inhibitory effect of 8d on A549 cell migration and invasion were analyzed.
(§5) Cell migration assays were evaluated in transwell chambers (Corning Incorporated, Corning, NY, USA). Cell invasion assays were evaluated in Matrigel invasion chambers (Becton-Dickinson). First, 0.5 × 10^5 tumor cells were plated in the top chamber with RPMI-1640 medium without FBS. Test compound was added to the bottom chamber with 500 µL medium containing 20% FBS. After incubation for 24 h at 37 °C, the cells were fixed in 100% methanol and stained with 0.1% crystal violet, then washed with PBS; the cells that had not migrated from the top surface of the filters were removed with cotton. Migrated cells were quantified by counting them in three randomly selected fields on the diameter under a microscope at 200× magnification

[3] = biological target: T1, PAK4 (Homo sapiens, UniProt O96013); test: PAK4 HTRF kinase assay; format: biochemical
T1 construct: purchased Sigma-Aldrich
T1 sequence (O96013 whole entry): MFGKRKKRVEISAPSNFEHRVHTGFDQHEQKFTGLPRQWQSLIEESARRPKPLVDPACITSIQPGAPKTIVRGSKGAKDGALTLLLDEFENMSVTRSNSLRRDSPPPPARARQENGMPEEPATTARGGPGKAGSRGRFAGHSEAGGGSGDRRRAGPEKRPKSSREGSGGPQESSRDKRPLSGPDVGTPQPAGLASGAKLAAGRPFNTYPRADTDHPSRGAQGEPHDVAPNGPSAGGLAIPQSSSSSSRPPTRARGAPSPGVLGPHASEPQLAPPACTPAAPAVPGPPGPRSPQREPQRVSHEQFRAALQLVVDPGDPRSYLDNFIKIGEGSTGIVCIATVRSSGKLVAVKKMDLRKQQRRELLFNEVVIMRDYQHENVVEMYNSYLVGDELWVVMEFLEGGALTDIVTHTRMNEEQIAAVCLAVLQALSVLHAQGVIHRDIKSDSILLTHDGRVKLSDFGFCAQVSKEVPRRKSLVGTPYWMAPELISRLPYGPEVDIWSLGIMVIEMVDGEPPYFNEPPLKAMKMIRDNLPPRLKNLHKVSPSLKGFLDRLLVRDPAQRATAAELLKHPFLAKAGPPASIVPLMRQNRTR

[4] = system: A549 cells; test: Matrigel cell invasion assay; format: cell-based, human; details: A549, Matrigel chamber, 24 h
Procedure: as §4, §5

[5] = system: A549 cell line; test: MTT cell proliferation assay, A549; format: cell-based; details: Homo sapiens, 50% cell growth inhibition after 24 h of drug exposure
Procedure: as §1, §2, §3

[6] = system: human gastric cancer cells; design: method as in PMID 22085492; details: cited from earlier work

SMILES	melting point [°C]	IC50 [3] [nM]	also measured
Clc1cccc(N2CCN(c3nc(Nc4cc(C5CC5)[nH]n4)c4cc(Cl)ccc4n3)CC2)c1 [Compound 7f, 6-Chloro-2-(4-(3-chlorophenyl)piperazin-1-yl)-N-(5-cyclopropyl-1H-pyrazol-3-yl)quinazolin-4-amine]	229.9 to 232.6	490	
Clc1ccc2nc(N3CCN(c4ccc(Br)cc4)CC3)nc(Nc3cc(C4CC4)[nH]n3)c2c1 [Compound 7c, 2-(4-(4-Bromophenyl)piperazin-1-yl)-6-chloro-N-(5-cyclopropyl-1H-pyrazol-3-yl)quinazolin-4-amine]	248.7 to 251.9	100	
Clc1ccc2nc(N3CCN(c4ccccc4)CC3)nc(Nc3cc(C4CC4)[nH]n3)c2c1 [Compound 7a, 6-Chloro-N-(5-cyclopropyl-1H-pyrazol-3-yl)-2-(4-phenylpiperazin-1-yl)quinazolin-4-amine]	239.5 to 240.8	850	
COc1ccc(N2CCN(c3nc(Nc4cc(C5CC5)[nH]n4)c4cc(Cl)ccc4n3)CC2)cc1 [Compound 7g, 6-Chloro-N-(5-cyclopropyl-1H-pyrazol-3-yl)-2-(4-(4-methoxyphenyl)piperazin-1-yl)quinazolin-4-amine]	237.1 to 239.5	300	
Fc1ccc(N2CCN(c3nc(Nc4cc(C5CC5)[nH]n4)c4cc(Cl)ccc4n3)CC2)cc1 [Compound 7i, 6-Chloro-N-(5-cyclopropyl-1H-pyrazol-3-yl)-2-(4-(4-fluorophenyl)piperazin-1-yl)quinazolin-4-amine]	228.8 to 231	200	
COc1cccc(Nc2nc(NCC3CCCO3)c3ccccc3n2)c1 (centres unmarked) [LCH-7749944, N^2-(3-methoxyphenyl)-N^4-((tetrahydrofuran-2-yl)methyl)quinazoline-2,4-diamine]			Effect on proliferation, migration, and invasion [6]: effectively suppressed
COc1cccc(N2CCN(c3nc(Nc4cc(C5CC5)[nH]n4)c4cc(Cl)ccc4n3)CC2)c1 [Compound 7h, 6-Chloro-N-(5-cyclopropyl-1H-pyrazol-3-yl)-2-(4-(3-methoxyphenyl)piperazin-1-yl)quinazolin-4-amine]	199.9 to 201.8	690	
Clc1ccc2nc(N3CCC(N4CCCCC4)CC3)nc(Nc3cc(C4CC4)[nH]n3)c2c1 [Compound 6a, ([1,4′-Bipiperidin]-1′-yl)-6-chloro-N-(5-cyclopropyl-1H-pyrazol-3-yl)quinazolin-4-amine]	208.3 to 209.6	440	
Clc1ccc2nc(N3CCC(N4CCOCC4)CC3)nc(Nc3cc(C4CC4)[nH]n3)c2c1 [Compound 6b]	214.3 to 216.6	560	
Cc1ccc(N2CCN(c3nc(Nc4cc(C5CC5)[nH]n4)c4cc(Cl)ccc4n3)CC2)cc1 [Compound 7b, 6-Chloro-N-(5-cyclopropyl-1H-pyrazol-3-yl)-2-(4-(p-tolyl)piperazin-1-yl)quinazolin-4-amine]	204.9 to 207.5	240	
FC(F)(F)c1ccc(N2CCN(c3nc(Nc4cc(C5CC5)[nH]n4)c4cc(Cl)ccc4n3)CC2)cc1 [Compound 7d, 6-Chloro-N-(5-cyclopropyl-1H-pyrazol-3-yl)-2-(4-(4-(trifluoromethyl)phenyl)piperazin-1-yl)quinazolin-4-amine]	256.4 to 257.8	650	
Clc1ccc(N2CCN(c3nc(Nc4cc(C5CC5)[nH]n4)c4cc(Cl)ccc4n3)CC2)cc1 [Compound 7e, 6-Chloro-2-(4-(4-chlorophenyl)piperazin-1-yl)-N-(5-cyclopropyl-1H-pyrazol-3-yl)quinazolin-4-amine]	250 to 251.8	160	

More lines, main results first:

melting point [°C]	IC50 [3] [nM]	SMILES	also measured
270.5 to 272.8	60	Clc1ccc2nc(N3CCN(c4ccc(Br)cn4)CC3)nc(Nc3cc(C4CC4)[nH]n3)c2c1 [Compound 8d, 2-(4-(5-Bromopyridin-2-yl)piperazin-1-yl)-6-chloro-N-(5-cyclopropyl-1H-pyrazol-3-yl)quinazolin-4-amine]	IC50 [1]: 21500 nM; Activity against HT1080 (off-target check) [1]: negligible activity; Effect on cell migration [2]: decreased the migration and invasion potential; Effect on cell invasion [4]: decreased the migration and invasion potential; IC50 [5]: 4680 nM
280.6 to 282.7	68	Clc1ccc2nc(N3CCN(c4ncc(Br)cn4)CC3)nc(Nc3cc(C4CC4)[nH]n3)c2c1 [Compound 9c, 2-(4-(5-Bromopyrimidin-2-yl)piperazin-1-yl)-6-chloro-N-(5-cyclopropyl-1H-pyrazol-3-yl)quinazolin-4-amine]	IC50 [1]: 39300 nM; Activity against HT1080 (off-target check) [1]: negligible activity; IC50 [5]: 4750 nM
247.6 to 259.6	220	FC(F)(F)c1ccc(N2CCN(c3nc(Nc4cc(C5CC5)[nH]n4)c4cc(Cl)ccc4n3)CC2)nc1 [Compound 8e, 6-Chloro-N-(5-cyclopropyl-1H-pyrazol-3-yl)-2-(4-(5-(trifluoromethyl)pyridin-2-yl)piperazin-1-yl)quinazol-in-4-amine]	
210.3 to 211.6	380	COc1ccnc(N2CCN(c3nc(Nc4cc(C5CC5)[nH]n4)c4cc(Cl)ccc4n3)CC2)c1 [Compound 8b, 6-Chloro-N-(5-cyclopropyl-1H-pyrazol-3-yl)-2-(4-(4-methoxypyridin-2-yl)piperazin-1-yl)quinazolin-4-amine]	
262.8 to 264.7	110	Cc1cnc(N2CCN(c3nc(Nc4cc(C5CC5)[nH]n4)c4cc(Cl)ccc4n3)CC2)nc1 [Compound 9b, 6-Chloro-N-(5-cyclopropyl-1H-pyrazol-3-yl)-2-(4-(5-methylpyrimidin-2-yl)piperazin-1-yl)quinazolin-4-amine]	
184.4 to 186.7	310	Clc1ccc2nc(N3CCN(c4ccccn4)CC3)nc(Nc3cc(C4CC4)[nH]n3)c2c1 [Compound 8a, 6-Chloro-N-(5-cyclopropyl-1H-pyrazol-3-yl)-2-(4-(pyridin-2-yl)piperazin-1-yl)quinazolin-4-amine]	
263 to 265.4	87	Cc1ccc(N2CCN(c3nc(Nc4cc(C5CC5)[nH]n4)c4cc(Cl)ccc4n3)CC2)nc1 [Compound 8c, 6-Chloro-N-(5-cyclopropyl-1H-pyrazol-3-yl)-2-(4-(5-methylpyridin-2-yl)piperazin-1-yl)quinazolin-4-amine]	
249.3 to 250.5	380	Clc1ccc2nc(N3CCN(c4ncccn4)CC3)nc(Nc3cc(C4CC4)[nH]n3)c2c1 [Compound 9a, 6-Chloro-N-(5-cyclopropyl-1H-pyrazol-3-yl)-2-(4-(pyrimidin-2-yl)piperazin-1-yl)quinazolin-4-amine]	
